Activity calls are given as the source filed them. The rule behind the calls is not given here.
System: CCRIS mutagenicity, Ames/micronucleus/aberration tests
Assay: CCRIS mutagenicity studies
[1] = Test System: AMES SALMONELLA TYPHIMURIUM, Strain/Indicator: TA98, Metabolic Activation: NONE, Method: PREINCUBATION
[2] = Test System: AMES SALMONELLA TYPHIMURIUM, Strain/Indicator: TA100, Metabolic Activation: NONE, Method: PREINCUBATION

Measured: mutagenic call

O=[N+]([O-])c1ccc(/C=C/c2cccc(CO)n2)o1
active: Test System: UDS HUMAN FIBROBLASTS, Strain/Indicator: THY INCORP (NON-S-PHASE), Metabolic Activation: NONE, Method: AUTORADIOGRAPHY active; positive

CN(C)CCN(Cc1cccs1)c1ccccn1
inactive: Test System: AMES SALMONELLA TYPHIMURIUM, Strain/Indicator: TA97, Metabolic Activation: RAT, LIVER, S-9, AROCLOR 1254, Method: STANDARD PLATE inactive; negative | Test System: AMES SALMONELLA TYPHIMURIUM, Strain/Indicator: TA98, Metabolic Activation: HAMSTER LIVER S-9, AROCLOR 1254 (10%), Method: PREINCUBATION inactive; negative | [1] inactive; negative | Test System: AMES SALMONELLA TYPHIMURIUM, Strain/Indicator: TA98, Metabolic Activation: NONE, Method: STANDARD PLATE inactive; negative | Test System: AMES SALMONELLA TYPHIMURIUM, Strain/Indicator: TA98, Metabolic Activation: RAT LIVER S-9, AROCLOR 1254 (10%), Method: PREINCUBATION inactive; negative | Test System: AMES SALMONELLA TYPHIMURIUM, Strain/Indicator: TA98, Metabolic Activation: RAT, LIVER, S-9, AROCLOR 1254, Method: PREINCUBATION inactive; negative | Test System: AMES SALMONELLA TYPHIMURIUM, Strain/Indicator: TA98, Metabolic Activation: RAT, LIVER, S-9, AROCLOR 1254, Method: STANDARD PLATE inactive; negative | Test System: AMES SALMONELLA TYPHIMURIUM, Strain/Indicator: TA98, Metabolic Activation: RAT, LIVER, S-9, Method: STANDARD PLATE inactive; negative | Test System: AMES SALMONELLA TYPHIMURIUM, Strain/Indicator: TA98, Method: STANDARD PLATE inactive; negative | Test System: AMES SALMONELLA TYPHIMURIUM, Strain/Indicator: TA100, Metabolic Activation: HAMSTER LIVER S-9, AROCLOR 1254 (10%), Method: PREINCUBATION inactive; negative | [2] inactive; negative | Test System: AMES SALMONELLA TYPHIMURIUM, Strain/Indicator: TA100, Metabolic Activation: NONE, Method: STANDARD PLATE inactive; negative | Test System: AMES SALMONELLA TYPHIMURIUM, Strain/Indicator: TA100, Metabolic Activation: RAT LIVER S-9, AROCLOR 1254 (10%), Method: PREINCUBATION inactive; negative | Test System: AMES SALMONELLA TYPHIMURIUM, Strain/Indicator: TA100, Metabolic Activation: RAT, LIVER, S-9, AROCLOR 1254, Method: STANDARD PLATE inactive; negative | Test System: AMES SALMONELLA TYPHIMURIUM, Strain/Indicator: TA100, Metabolic Activation: RAT, LIVER, S-9, Method: STANDARD PLATE inactive; negative | Test System: AMES SALMONELLA TYPHIMURIUM, Strain/Indicator: TA100, Method: STANDARD PLATE inactive; negative | Test System: AMES SALMONELLA TYPHIMURIUM, Strain/Indicator: TA104, Metabolic Activation: NONE, Method: STANDARD PLATE inactive; negative | Test System: AMES SALMONELLA TYPHIMURIUM, Strain/Indicator: TA104, Metabolic Activation: RAT, LIVER, S-9, AROCLOR 1254, Method: STANDARD PLATE inactive; negative | Test System: AMES SALMONELLA TYPHIMURIUM, Strain/Indicator: TA104, Metabolic Activation: RAT, LIVER, S-9, Method: STANDARD PLATE inactive; negative | Test System: AMES SALMONELLA TYPHIMURIUM, Strain/Indicator: TA104, Method: STANDARD PLATE inactive; negative | Test System: AMES SALMONELLA TYPHIMURIUM, Strain/Indicator: TA1535, Metabolic Activation: HAMSTER LIVER S-9, AROCLOR 1254 (10%), Method: PREINCUBATION inactive; negative | Test System: AMES SALMONELLA TYPHIMURIUM, Strain/Indicator: TA1535, Metabolic Activation: NONE, Method: PREINCUBATION inactive; negative | Test System: AMES SALMONELLA TYPHIMURIUM, Strain/Indicator: TA1535, Metabolic Activation: RAT LIVER S-9, AROCLOR 1254 (10%), Method: PREINCUBATION inactive; negative | Test System: AMES SALMONELLA TYPHIMURIUM, Strain/Indicator: TA1535, Metabolic Activation: RAT, LIVER, S-9, AROCLOR 1254, Method: STANDARD PLATE inactive; negative | Test System: AMES SALMONELLA TYPHIMURIUM, Strain/Indicator: TA1535, Metabolic Activation: RAT, LIVER, S-9, Method: STANDARD PLATE inactive; negative | Test System: AMES SALMONELLA TYPHIMURIUM, Strain/Indicator: TA1535, Method: STANDARD PLATE inactive; negative | Test System: AMES SALMONELLA TYPHIMURIUM, Strain/Indicator: TA1537, Metabolic Activation: HAMSTER LIVER S-9, AROCLOR 1254 (10%), Method: PREINCUBATION inactive; negative | Test System: AMES SALMONELLA TYPHIMURIUM, Strain/Indicator: TA1537, Metabolic Activation: NONE, Method: PREINCUBATION inactive; negative | Test System: AMES SALMONELLA TYPHIMURIUM, Strain/Indicator: TA1537, Metabolic Activation: NONE, Method: STANDARD PLATE inactive; negative | Test System: AMES SALMONELLA TYPHIMURIUM, Strain/Indicator: TA1537, Metabolic Activation: RAT LIVER S-9, AROCLOR 1254 (10%), Method: PREINCUBATION inactive; negative | Test System: AMES SALMONELLA TYPHIMURIUM, Strain/Indicator: TA1537, Metabolic Activation: RAT, LIVER, S-9, AROCLOR 1254, Method: STANDARD PLATE inactive; negative | Test System: AMES SALMONELLA TYPHIMURIUM, Strain/Indicator: TA1537, Metabolic Activation: RAT, LIVER, S-9, Method: STANDARD PLATE inactive; negative | Test System: AMES SALMONELLA TYPHIMURIUM, Strain/Indicator: TA1537, Method: STANDARD PLATE inactive; negative | Test System: AMES SALMONELLA TYPHIMURIUM, Strain/Indicator: TA1538, Metabolic Activation: RAT, LIVER, S-9, AROCLOR 1254, Method: STANDARD PLATE inactive; negative | Test System: AMES SALMONELLA TYPHIMURIUM, Strain/Indicator: TA2638, Metabolic Activation: NONE, Method: STANDARD PLATE inactive; negative | Test System: AMES SALMONELLA TYPHIMURIUM, Strain/Indicator: TA2638, Metabolic Activation: RAT, LIVER, S-9, AROCLOR 1254, Method: STANDARD PLATE inactive; negative | Test System: AMES SALMONELLA TYPHIMURIUM, Strain/Indicator: TA2638, Metabolic Activation: RAT, LIVER, S-9, Method: STANDARD PLATE inactive; negative | Test System: AMES SALMONELLA TYPHIMURIUM, Strain/Indicator: TA2638, Method: STANDARD PLATE inactive; negative | Test System: CHINESE HAMSTER OVARY, Strain/Indicator: CHO-K1-BH4 (HGPRT), Metabolic Activation: NONE, Method: SUSPENSION/PLATE inactive; negative | Test System: CHINESE HAMSTER OVARY, Strain/Indicator: CHO-K1-BH4 (HGPRT), Metabolic Activation: RAT, LIVER, S-9, AROCLOR, Method: SUSPENSION/PLATE inactive; negative | Test System: E. COLI, Strain/Indicator: WP2 UVRA, Metabolic Activation: NONE, Method: STANDARD PLATE inactive; negative | Test System: E. COLI, Strain/Indicator: WP2 UVRA, Metabolic Activation: RAT, LIVER, S-9, AROCLOR 1254, Method: STANDARD PLATE inactive; negative | Test System: E. COLI, Strain/Indicator: WP2 UVRA, Metabolic Activation: RAT, LIVER, S-9, Method: STANDARD PLATE inactive; negative | Test System: E. COLI, Strain/Indicator: WP2 UVRA, Method: STANDARD PLATE inactive; negative | Test System: MOUSE LYMPHOMA, Strain/Indicator: L5178Y (TK+/+)/TRIFLUOROTHYMIDINE, Metabolic Activation: RAT LIVER S-9, AROCLOR 1254, Method: SUSPENSION/PLATE inactive; negative | Test System: MOUSE LYMPHOMA, Strain/Indicator: L5178Y (TK+/TK-), Metabolic Activation: NONE, Method: SUSPENSION/PLATE inactive; negative | Test System: MOUSE LYMPHOMA, Strain/Indicator: L5178Y (TK+/TK-), Metabolic Activation: RAT, LIVER, S-9, AROCLOR 1254, Method: SUSPENSION/PLATE inactive; negative
active: Test System: MOUSE LYMPHOMA, Strain/Indicator: L5178Y (TK+/TK-), Metabolic Activation: RAT, LIVER, S-9, AROCLOR 1242 AND 1254 (2:1), Method: SUSPENSION/PLATE active; positive | Test System: MOUSE LYMPHOMA, Strain/Indicator: L5178Y (TK+/TK-), Metabolic Activation: RAT, LIVER, S-9, AROCLOR 1242 AND 1254 (2:1 MIXTURE), Method: SUSPENSION/PLATE active; positive | Test System: UDS RAT HEPATOCYTES, Strain/Indicator: THY INCORP, Metabolic Activation: NONE, Method: AUTORADIOGRAPHY (SERUM-FREE MEDIA) active; positive

C1CN2CCN1CC2
inactive: [1] inactive; negative | Test System: AMES SALMONELLA TYPHIMURIUM, Strain/Indicator: TA98, Metabolic Activation: RAT, LIVER, S-9, PCB, Method: PREINCUBATION inactive; negative | [2] inactive; negative | Test System: AMES SALMONELLA TYPHIMURIUM, Strain/Indicator: TA100, Metabolic Activation: RAT, LIVER, S-9, PCB, Method: PREINCUBATION inactive; negative

— PubChem BioAssay AID1259407 (Chemical Carcinogenesis Research Information System (CCRIS), 2018)
